Source: patent US20220264878A1, “HERBICIDAL COMPOSITION CONTAINING R-TYPE PYRIDYLOXY CARBOXYLIC ACID DERIVATIVE AND USE THEREOF” (Qingdao Kingagroot Chemical Compound Co., Ltd., priority 2019, published 2022)

What was measured:
Assay type in all cases: in vivo
[1] = test system: Conyza Canadensis; assay: Post-emergence foliage spray on Conyza Canadensis with a height of 10 cm, fresh weight inhibition (Tables 207-216; 24 days); settings: 24 days after treatment
Experimental: (§1) The above weeds were cultivated by a pot culture method. […] Full and uniform weed seeds were selected, soaked in warm water at 25° C. for 6 hours, and germinated in a 28° C. biochemical incubator (darkness). The weed seeds that had just germinatedwere evenly placed on the surface of the soil and then covered with 0.5-1 cm soil according to the sizes of seeds.
(§2) The technical materials were all dissolved in acetone, and diluted with an aqueous solution containing 0.1% emulsifier Tween-80. The dilution is performed as required.
(§3) A ratio of the active ingredient A to the active ingredient B and amounts thereof in each group depends on the characteristics and toxicity of the two agents, as well as the main application purpose of a corresponding formulation. Based on the pre-tests in this study, the dosage of the active ingredient A and B applied alone and in combination were shown in the tables. Water containing the solvent and emulsifier same with the above groups but free of the agents was used as a blank control.
In the stage of weeds with 6˜8 leaves, the weeds were thinned out to maintain 3 weeds per pot and 30 weeds for each treatment, then continued to be cultured to Conyza Canadensis with a height of 10 cm, and treated.
(§4) The well-cultured weeds were evenly placed on a platform with an area of 0.5 m^2, and a solution of agents was sprayed on the stems and leaves thereof by the 3WP-2000-type walking spray tower at a dosage of 450 kg/ha and at a spray pressure of 0.3 MPa. After all the solution was sprayed, the valve was closed. After 30 seconds, the door of the spray tower was opened, and the nutritional bowl was taken out. Then the valve was opened, and the spray tube was cleaned by spraying 50 ml of water.
(§5) A pot-culture method was employed. For the cultivation of weeds, please refer to the Section 1.1), and “Pesticide guidelines for laboratory bioactivity tests—herbicides”. As to a method for applying agents, please refer to the section 2.3.2), that is, a foliage treatment was employed. After the treatment, the weeds were routinely cultured in a greenhouse.
(§6) A method for investigating absolute number was employed, wherein whole seedlings of survival weeds were cut off with a blade along the soil surface, and the fresh weight of the weeds was weighed with an analytical balance. For dead weeds, the fresh weight thereof was zero.
Wherein, in the formula, X represented the fresh weight inhibition rate of the active ingredient A in a dosage of P, and Y represented the fresh weight inhibition rate of the active ingredient B in a dosage of Q.

[2] = test system: Alopecurus japonicus; assay: Post-emergence foliage spray, pot culture, fresh weight inhibition (Tables 1-48, 51-98, 101-148; 24 days)
Source text: (§7) Table 1-48, 51-98, 101-148: Echinochloa crusgalli var. zelayensis, Eclipta prostrate, Galium aparine L., Alopecurus aequalis, Alopecurus japonicus, Lindernia procumbens, Veronica persica^1, Malachium aquaticum, Beckmannia syzigachne, Stellaria media were collected in Huai'an of Jiangsu Province; Commelina communis, Sonchus arvensis, Setaria glauca, Chloris virgata, Setaria faberi, Sonchus oleraceus L., Echinochloa oryzoides, Cirsium setosum, Xanthium strumarium were collected in Qiqiha'er of Heilongjiang Province; Sinapis arvensis, Veronica persica^2 were collected in Zhumadian of Henan Province; Ludwigia prostrate, Ammannia arenaria were collected in Zhuji of Zhejiang Province; Amaranthus retrojlexus, Descurainia sophia, Digitaria sanguinalis, Setaria viridis, Conyza Canadensis, Capsella bursa-pastoris, Eleusine indica, Ipomoea purpurea, Abutilon theophrasti, Chenopodium album, Acalypha australis, Solanum nigrum were collected in Qingdao of Shandong Province; Echinochloa caudate were collected in Pingluo of Ningxia Province.
as §1
(§8) The culture was carried out in a controllable sunlight greenhouse at 20 to 30° C., in natural light, and relative humidity of 57% to 72%.
as §2, §3
(§9) Table 1-48, 51-98, 101-148, 151-206: […] per treatment, that is, a total of 60 weeds were treated in one treatment.
(§10) Table 1-48, 51-98, 101-148: The agents were used for only once in the experiment. In the stage of weeds with 3˜4 leaves, the weeds were thinned out to maintain 15 weeds per pot and 45 weeds for each treatment, then continued to be cultured to 5˜6 leaves stage of grassy weeds, 6˜7 leaves stage of broadleaf weeds, and treated.
as §4, §5, §6
(§11) Table 1-48, 51-98, 101-148, 207-216: The investigation was performed after 24 days of the treatment for only once.

[3] = test system: Beckmannia syzigachne; assay: as above
Source text: as §7, §1, §8, §2, §3, §9, §10, §4, §5, §6, §11

Nc1cc(Cl)nc(C(=O)O)c1Cl [aminopyralid]
Control effect (%) of B applied alone in corresponding dose ([1]; B alone 15 g a.i./ha): 19.0% | Control effect (%) of B applied alone in corresponding dose ([1]; B alone 30 g a.i./ha): 40.7%

O=C(O)COc1nc(Cl)c(Cl)cc1Cl [triclopyr]
Control effect (%) of B applied alone in corresponding dose ([1]; B alone 300 g a.i./ha): 78.4%

Nc1c(Cl)c(F)nc(OCC(=O)O)c1Cl [fluroxypyr]
Control effect (%) of B applied alone in corresponding dose ([1]; B alone 37.5 g a.i./ha): 5.8%

Nc1c(Cl)c(Cl)nc(C(=O)O)c1Cl [picloram]
Control effect (%) of B applied alone in corresponding dose ([1]; B alone 7.5 g a.i./ha): 5.0% | Control effect (%) of B applied alone in corresponding dose ([1]; B alone 60 g a.i./ha): 69.4%

COc1c(Cl)ccc(-c2nc(C(=O)OCc3ccccc3)c(Cl)c(N)c2F)c1F [florpyrauxifen benzyl]
Control effect (%) of B applied alone in corresponding dose ([1]; B alone 1.875 g a.i./ha): 3.5% | Control effect (%) of B applied alone in corresponding dose ([1]; B alone 7.5 g a.i./ha): 47.4%

O=C(O)c1c(Cl)ccc2cc(Cl)cnc12 [quinclorac]
Control effect (%) of B applied alone in corresponding dose ([1]; B alone 30 g a.i./ha): 11.7% | Control effect (%) of B applied alone in corresponding dose ([1]; B alone 60 g a.i./ha): 28.8% | Control effect (%) of B applied alone in corresponding dose ([1]; B alone 120 g a.i./ha): 53.7% | Control effect (%) of B applied alone in corresponding dose ([1]; B alone 240 g a.i./ha): 76.2%

CCc1cc(C)cc(CC)c1-c1c(OC(=O)C(C)(C)C)n2n(c1=O)CCOCC2 [pinoxaden]
Control effect (%) of B applied alone in corresponding dose ([2]; pinoxaden 3.75 g a.i./ha): 2.5% | Control effect (%) of B applied alone in corresponding dose ([2]; pinoxaden 7.5 g a.i./ha): 12.1% | Control effect (%) of B applied alone in corresponding dose ([2]; pinoxaden 15 g a.i./ha): 41.7% | Control effect (%) of B applied alone in corresponding dose ([2]; pinoxaden 30 g a.i./ha): 71.8% | Control effect (%) of B applied alone in corresponding dose ([3]; B 3.75 g a.i./ha): 7.9% | Control effect (%) of B applied alone in corresponding dose ([3]; B 7.5 g a.i./ha): 18.0% | Control effect (%) of B applied alone in corresponding dose ([3]; B 15 g a.i./ha): 43.5% | Control effect (%) of B applied alone in corresponding dose ([3]; B 30 g a.i./ha): 72.6%

CC(C)c1ccc(NC(=O)N(C)C)cc1 [isoproturon]
Control effect (%) of B applied alone in corresponding dose ([2]; isoproturon 75 g a.i./ha): 2.5% | Control effect (%) of B applied alone in corresponding dose ([2]; isoproturon 150 g a.i./ha): 11.4% | Control effect (%) of B applied alone in corresponding dose ([2]; isoproturon 300 g a.i./ha): 56.5% | Control effect (%) of B applied alone in corresponding dose ([2]; isoproturon 600 g a.i./ha): 75.9% | Control effect (%) of B applied alone in corresponding dose ([3]; B 75 g a.i./ha): 7.0% | Control effect (%) of B applied alone in corresponding dose ([3]; B 150 g a.i./ha): 15.9% | Control effect (%) of B applied alone in corresponding dose ([3]; B 300 g a.i./ha): 57.6% | Control effect (%) of B applied alone in corresponding dose ([3]; B 600 g a.i./ha): 76.6%

O=C(O)c1nc(Cl)ccc1Cl [clopyralid]
Control effect (%) of B applied alone in corresponding dose ([1]; B alone 15 g a.i./ha): 6.1% | Control effect (%) of B applied alone in corresponding dose ([1]; B alone 30 g a.i./ha): 29.8% | Control effect (%) of B applied alone in corresponding dose ([1]; B alone 60 g a.i./ha): 53.5% | Control effect (%) of B applied alone in corresponding dose ([1]; B alone 120 g a.i./ha): 82.8%

Cc1cc(Cl)ccc1OCC(=O)O [MCPA]
Control effect (%) of B applied alone in corresponding dose ([1]; B alone 75 g a.i./ha): 18.8%

Cc1ccc(NC(=O)N(C)C)cc1Cl [chlorotoluron]
Control effect (%) of B applied alone in corresponding dose ([2]; chlorotoluron 75 g a.i./ha): 2.9% | Control effect (%) of B applied alone in corresponding dose ([2]; chlorotoluron 150 g a.i./ha): 13.1% | Control effect (%) of B applied alone in corresponding dose ([2]; chlorotoluron 300 g a.i./ha): 39.8% | Control effect (%) of B applied alone in corresponding dose ([2]; chlorotoluron 600 g a.i./ha): 71.9% | Control effect (%) of B applied alone in corresponding dose ([3]; B 75 g a.i./ha): 5.5% | Control effect (%) of B applied alone in corresponding dose ([3]; B 150 g a.i./ha): 16.8% | Control effect (%) of B applied alone in corresponding dose ([3]; B 300 g a.i./ha): 41.1% | Control effect (%) of B applied alone in corresponding dose ([3]; B 600 g a.i./ha): 72.1%

COc1c(Cl)ccc(Cl)c1C(=O)O [dicamba]
Control effect (%) of B applied alone in corresponding dose ([1]; B alone 150 g a.i./ha): 58.7%

C#CCOC(=O)[C@@H](C)Oc1ccc(Oc2ncc(Cl)cc2F)cc1 [clodinafop-propargyl]
Control effect (%) of B applied alone in corresponding dose ([2]; clodinafop-propargyl 3.75 g a.i./ha): 3.0% | Control effect (%) of B applied alone in corresponding dose ([2]; clodinafop-propargyl 7.5 g a.i./ha): 10.6% | Control effect (%) of B applied alone in corresponding dose ([2]; clodinafop-propargyl 15 g a.i./ha): 57.8% | Control effect (%) of B applied alone in corresponding dose ([2]; clodinafop-propargyl 30 g a.i./ha): 79.9% | Control effect (%) of B applied alone in corresponding dose ([3]; B 3.75 g a.i./ha): 10.3% | Control effect (%) of B applied alone in corresponding dose ([3]; B 7.5 g a.i./ha): 20.1% | Control effect (%) of B applied alone in corresponding dose ([3]; B 15 g a.i./ha): 59.6% | Control effect (%) of B applied alone in corresponding dose ([3]; B 30 g a.i./ha): 81.2%

COC(=O)c1nc(-c2ccc(Cl)c(OC)c2F)cc(N)c1Cl [halauxifen-methyl]
Control effect (%) of B applied alone in corresponding dose ([1]; B alone 3.75 g a.i./ha): 20.5% | Control effect (%) of B applied alone in corresponding dose ([1]; B alone 15 g a.i./ha): 81.5%
